Data from the supplement of paper PMC10307832.

Legend:
Assay in all cases: relative viability (nuclei count vs DMSO), 5 days (fraction); higher = more cells survive
[1] = compound: O=c1[nH]cc(F)c(=O)[nH]1 [5-Fluorouracil] + N=C(N)NC(=N)NCCc1ccccc1 [Phenformin] (partner 250 µM)
How it was run: (§1)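 One day after seeding in 1536-well plates, lung cancer cell lines were dosed by pin tool. Dosing was either single-drug or a fixed anchor-drug dose plus five library-drug doses (not always all listed) in √10 steps. After 5 days, nuclei were stained in one fix-and-stain step and counted on 4× images, and relative viability is the nuclei count of treated wells over that of vehicle wells, given as the median of duplicate plates.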

[2] = compound: O=c1[nH]cc(F)c(=O)[nH]1 [5-Fluorouracil] + CCNC(=O)c1noc(-c2cc(C(C)C)c(O)cc2O)c1-c1ccc(CN2CCOCC2)cc1 [Luminespib] (partner 0.01 µM)
How it was run: as §1

[3] = compound: CN[C@@H]1C[C@H]2O[C@@](C)([C@@H]1OC)n1c3ccccc3c3c4c(c5c6ccccc6n2c5c31)C(=O)NC4 [Staurosporine] + CCNC(=O)c1noc(-c2cc(C(C)C)c(O)cc2O)c1-c1ccc(CN2CCOCC2)cc1 [Luminespib] (partner 0.01 µM)
How it was run: as §1

[4] = compound: O=c1[nH]cc(F)c(=O)[nH]1 [5-Fluorouracil] + C[C@@H](Oc1cc(-c2cnn(C3CCNCC3)c2)cnc1N)c1c(Cl)ccc(F)c1Cl [Crizotinib] (partner 1 µM)
How it was run: as §1

Cell Line	relative viability ([1]; first compound 0.02 µM)	relative viability ([1]; first compound 0.2 µM)	relative viability ([1]; first compound 0.6325 µM)	relative viability ([1]; first compound 2 µM)	relative viability ([2]; first compound 0.02 µM)	relative viability ([2]; first compound 0.2 µM)	relative viability ([2]; first compound 0.6325 µM)	relative viability ([2]; first compound 2 µM)	relative viability ([3]; first compound 0.005 µM)	relative viability ([3]; first compound 0.01581 µM)	relative viability ([3]; first compound 0.05 µM)	relative viability ([3]; first compound 0.1581 µM)	relative viability ([3]; first compound 0.5 µM)	relative viability ([4]; first compound 0.02 µM)	relative viability ([4]; first compound 0.2 µM)	relative viability ([4]; first compound 0.6325 µM)	relative viability ([4]; first compound 2 µM)
PC-14	0.572	0.682	0.558	0.585	0.117	0.151	0.171	0.191	0.11	0.101	0.103	0.132	0.118	0.899	0.928	0.788	0.456
HARA	0.426	0.559	0.455	0.27	0.964	0.739	0.705	0.509	0.697	–	0.297	0.0959	0.0973	1.4	1.04	1.06	1.08
NCI-H23	0.686	0.897	0.438	0.298	0.201	0.205	0.196	0.212	0.215	0.204	0.181	0.163	0.156	0.613	0.619	0.415	0.305
LCLC-97TM1	0.386	0.472	0.443	0.407	0.627	0.808	0.613	0.334	0.829	0.416	0.338	0.268	0.221	0.349	0.552	0.244	0.171
LC-2-ad	0.554	0.512	0.407	0.385	1.09	0.666	0.407	0.337	0.976	0.41	0.341	0.219	0.185	0.431	0.417	0.289	0.216
NCI-H1666	0.582	0.447	0.392	0.392	0.992	0.639	0.419	0.44	0.758	0.582	0.604	0.38	0.279	0.94	0.406	0.366	0.344
EKVX	0.18	0.179	0.13	0.134	0.647	–	0.166	0.152	0.65	0.385	0.277	0.176	0.107	0.842	–	0.181	–
SW 1573	0.475	0.42	0.385	0.246	0.253	0.228	0.323	0.169	0.096	0.0703	0.091	0.0676	0.0574	0.824	0.899	0.778	0.463
HCC-827	0.363	0.37	0.414	0.29	0.399	0.691	0.465	0.239	0.997	0.532	0.13	0.139	0.121	0.859	0.891	0.604	0.416
NCI-H522	0.584	0.637	0.682	0.678	1.14	1.19	1.17	0.961	1.2	1.14	0.719	0.758	0.751	–	–	–	–
IA-LM	–	–	–	–	–	–	–	–	–	–	–	–	–	1.03	0.401	0.254	0.289
NCI-H1703	–	–	–	–	–	–	–	–	–	–	–	–	–	0.83	0.564	0.378	0.479
EBC-1	–	–	–	–	–	–	–	–	–	–	–	–	–	0.177	0.214	0.206	0.202
HCC-366	0.562	0.622	0.424	0.0966	–	–	–	–	–	–	–	–	–	0.71	0.531	0.224	0.0745
SW 900	0.505	0.618	0.498	0.465	0.153	0.161	0.213	0.196	0.164	0.149	0.134	0.14	0.161	–	–	–	–
NCI-H1299	–	–	–	–	–	–	–	–	–	–	–	–	–	0.952	0.976	0.943	0.682
A549	0.172	0.258	0.153	0.0868	–	–	–	–	–	–	–	–	–	0.783	0.517	0.295	0.107
NCI-H1793	0.467	0.476	0.42	0.266	0.205	0.183	0.203	0.176	0.252	–	0.188	0.131	0.13	–	–	–	–
NCI-H1623	0.45	0.582	0.364	0.335	0.395	0.361	0.412	0.364	0.55	0.531	0.401	0.419	0.296	–	–	–	–
HCC-78	0.697	0.706	0.558	0.312	–	–	–	–	–	–	–	–	–	0.331	0.311	0.254	–
NCI-H1395	0.426	0.458	0.428	0.494	0.638	0.675	0.743	0.658	0.613	0.507	0.349	0.318	0.346	–	–	–	–
NCI-H2342	0.619	0.72	0.559	0.635	0.807	0.731	0.616	0.467	0.843	0.69	0.49	0.47	0.334	–	–	–	–
Calu-6	–	–	–	–	–	–	–	–	–	–	–	–	–	0.872	0.859	0.693	0.427
LK-2	0.597	0.582	0.57	0.381	–	–	–	–	0.202	–	0.187	0.153	0.172	0.246	–	0.21	0.221
